Results: article PMC3261198, “Mitochondrial Apoptosis and FAK Signaling Disruption by a Novel Histone Deacetylase Inhibitor, HTPB, in Antitumor and Antimetastatic Mouse Models” (PLoS ONE, 2012)

Key:
[1] = tested on: IMR90 normal lung cell line; settings: 0.5–10 µM, 48 hours, MTT
HDAC1 = HDAC1 (Homo sapiens, UniProt Q13547); settings: HTPB 1 or 2 µM; class I HDAC from A549 cells
HDAC8 = HDAC8 (Homo sapiens, UniProt Q9BY41); settings: HTPB 1 or 2 µM; class I HDAC from A549 cells
HDAC4 = HDAC4 (Homo sapiens, UniProt P56524); settings: HTPB 1 or 2 µM; class II HDAC from A549 cells
HDAC6 = HDAC6 (Homo sapiens, UniProt Q9UBN7); settings: HTPB 1 or 2 µM; class II HDAC from A549 cells
HDAC11 = HDAC11 (Homo sapiens, UniProt Q96DB2); settings: HTPB 1 or 2 µM; class IV HDAC from A549 cells
HDAC = settings: Fig. S5, compared to MS275
A549 cells [2] = settings: A549, 5 µM, 24 hours
H1299 cells [3] = settings: H1299, 5 µM, 24 hours
MMP-2 = settings: A549 and H1299 cells, 2.5 µM, 48 hours
MMP-9 = settings: A549 and H1299 cells, 2.5 µM, 48 hours
A549 cells [4] = test: cells; settings: Homo sapiens, A549, 48 h, read-out: IC50 (cytotoxicity)
RhoA = settings: A549 and H1299 cells, 2.5 µM, 48 hours
[5] = 25–100 mg/kg intraperitoneal or oral, three weeks
[6] = tested on: 4T1-luc breast cancer cells; settings: 1.92 µM, 48 hours
[7] = tested on: 4T1-luc breast cancer cells; settings: 1.92 µM, 48 hours; remark: listed apart in the source
[8] = tested on: lung metastasis of 4T1-luc cells; settings: cells pre-treated with 1.92 µM for 48 hours, injected via tail vein, imaged 13 days
[9] = tested on: acetylation of histone H3, histone H4, p53 and tubulin; settings: time- and dose-dependent, Western blot
[10] = tested on: acetylation of histone H3, histone H4 and p53; settings: single dose 50 mg/kg intraperitoneal, after 2 hours
H1299 cells [11] = test: cells; settings: Homo sapiens, NCI-H1299, 48 h, read-out: IC50 (cytotoxicity)
in vitro [12] = settings: human, A549 cells
in vitro [13] = settings: human, H1299 cells
[14] = tested on: A549 lung tumor xenograft; test: In vivo anti-tumor growth assay; settings: for tumor growth inhibition compared with DMSO control / tumor growth inhibition: 3 days/week for three weeks; for tumor growth inhibition: oral

Chain of HDAC4 (P56524 whole entry): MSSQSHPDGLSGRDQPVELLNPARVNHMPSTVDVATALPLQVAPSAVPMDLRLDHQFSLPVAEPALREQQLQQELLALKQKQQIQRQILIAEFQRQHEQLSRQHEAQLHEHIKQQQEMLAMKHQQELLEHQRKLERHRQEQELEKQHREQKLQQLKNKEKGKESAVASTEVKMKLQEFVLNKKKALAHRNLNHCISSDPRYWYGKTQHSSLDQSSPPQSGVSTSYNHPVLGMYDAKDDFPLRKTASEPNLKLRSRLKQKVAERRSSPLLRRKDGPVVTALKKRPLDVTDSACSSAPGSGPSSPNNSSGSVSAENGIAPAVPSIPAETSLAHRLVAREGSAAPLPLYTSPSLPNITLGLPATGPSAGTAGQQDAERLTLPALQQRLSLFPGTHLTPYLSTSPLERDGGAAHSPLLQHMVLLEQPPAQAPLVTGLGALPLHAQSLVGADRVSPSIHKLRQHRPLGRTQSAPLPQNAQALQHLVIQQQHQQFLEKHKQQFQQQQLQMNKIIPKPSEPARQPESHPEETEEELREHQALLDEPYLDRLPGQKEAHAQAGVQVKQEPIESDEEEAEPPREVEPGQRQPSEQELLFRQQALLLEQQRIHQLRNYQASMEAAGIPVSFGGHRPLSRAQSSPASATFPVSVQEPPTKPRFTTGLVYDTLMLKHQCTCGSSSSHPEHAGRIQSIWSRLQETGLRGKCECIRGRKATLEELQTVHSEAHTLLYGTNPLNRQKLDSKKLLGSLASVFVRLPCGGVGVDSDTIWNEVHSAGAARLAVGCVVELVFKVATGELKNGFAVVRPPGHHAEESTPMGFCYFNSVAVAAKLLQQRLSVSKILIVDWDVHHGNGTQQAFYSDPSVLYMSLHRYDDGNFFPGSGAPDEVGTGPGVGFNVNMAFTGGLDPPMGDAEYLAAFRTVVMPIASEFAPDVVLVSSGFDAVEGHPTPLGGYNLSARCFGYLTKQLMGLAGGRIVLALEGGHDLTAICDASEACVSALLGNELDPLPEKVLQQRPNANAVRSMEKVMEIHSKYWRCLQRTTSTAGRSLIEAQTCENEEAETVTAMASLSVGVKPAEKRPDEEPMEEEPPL
Chain of HDAC4 (O15379 whole entry, further chain): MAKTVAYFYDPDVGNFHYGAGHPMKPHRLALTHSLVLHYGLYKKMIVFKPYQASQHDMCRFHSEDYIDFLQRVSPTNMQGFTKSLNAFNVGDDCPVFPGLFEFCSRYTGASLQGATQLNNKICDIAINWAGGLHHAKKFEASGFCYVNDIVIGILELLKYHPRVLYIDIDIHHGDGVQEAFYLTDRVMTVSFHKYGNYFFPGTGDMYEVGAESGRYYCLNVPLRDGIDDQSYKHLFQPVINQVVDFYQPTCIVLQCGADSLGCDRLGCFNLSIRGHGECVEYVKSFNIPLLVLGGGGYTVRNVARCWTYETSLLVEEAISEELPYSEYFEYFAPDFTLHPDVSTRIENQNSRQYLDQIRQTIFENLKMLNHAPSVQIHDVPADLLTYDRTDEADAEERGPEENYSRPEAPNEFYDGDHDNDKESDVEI
Chain of HDAC4 (Q9Y618 whole entry, further chain): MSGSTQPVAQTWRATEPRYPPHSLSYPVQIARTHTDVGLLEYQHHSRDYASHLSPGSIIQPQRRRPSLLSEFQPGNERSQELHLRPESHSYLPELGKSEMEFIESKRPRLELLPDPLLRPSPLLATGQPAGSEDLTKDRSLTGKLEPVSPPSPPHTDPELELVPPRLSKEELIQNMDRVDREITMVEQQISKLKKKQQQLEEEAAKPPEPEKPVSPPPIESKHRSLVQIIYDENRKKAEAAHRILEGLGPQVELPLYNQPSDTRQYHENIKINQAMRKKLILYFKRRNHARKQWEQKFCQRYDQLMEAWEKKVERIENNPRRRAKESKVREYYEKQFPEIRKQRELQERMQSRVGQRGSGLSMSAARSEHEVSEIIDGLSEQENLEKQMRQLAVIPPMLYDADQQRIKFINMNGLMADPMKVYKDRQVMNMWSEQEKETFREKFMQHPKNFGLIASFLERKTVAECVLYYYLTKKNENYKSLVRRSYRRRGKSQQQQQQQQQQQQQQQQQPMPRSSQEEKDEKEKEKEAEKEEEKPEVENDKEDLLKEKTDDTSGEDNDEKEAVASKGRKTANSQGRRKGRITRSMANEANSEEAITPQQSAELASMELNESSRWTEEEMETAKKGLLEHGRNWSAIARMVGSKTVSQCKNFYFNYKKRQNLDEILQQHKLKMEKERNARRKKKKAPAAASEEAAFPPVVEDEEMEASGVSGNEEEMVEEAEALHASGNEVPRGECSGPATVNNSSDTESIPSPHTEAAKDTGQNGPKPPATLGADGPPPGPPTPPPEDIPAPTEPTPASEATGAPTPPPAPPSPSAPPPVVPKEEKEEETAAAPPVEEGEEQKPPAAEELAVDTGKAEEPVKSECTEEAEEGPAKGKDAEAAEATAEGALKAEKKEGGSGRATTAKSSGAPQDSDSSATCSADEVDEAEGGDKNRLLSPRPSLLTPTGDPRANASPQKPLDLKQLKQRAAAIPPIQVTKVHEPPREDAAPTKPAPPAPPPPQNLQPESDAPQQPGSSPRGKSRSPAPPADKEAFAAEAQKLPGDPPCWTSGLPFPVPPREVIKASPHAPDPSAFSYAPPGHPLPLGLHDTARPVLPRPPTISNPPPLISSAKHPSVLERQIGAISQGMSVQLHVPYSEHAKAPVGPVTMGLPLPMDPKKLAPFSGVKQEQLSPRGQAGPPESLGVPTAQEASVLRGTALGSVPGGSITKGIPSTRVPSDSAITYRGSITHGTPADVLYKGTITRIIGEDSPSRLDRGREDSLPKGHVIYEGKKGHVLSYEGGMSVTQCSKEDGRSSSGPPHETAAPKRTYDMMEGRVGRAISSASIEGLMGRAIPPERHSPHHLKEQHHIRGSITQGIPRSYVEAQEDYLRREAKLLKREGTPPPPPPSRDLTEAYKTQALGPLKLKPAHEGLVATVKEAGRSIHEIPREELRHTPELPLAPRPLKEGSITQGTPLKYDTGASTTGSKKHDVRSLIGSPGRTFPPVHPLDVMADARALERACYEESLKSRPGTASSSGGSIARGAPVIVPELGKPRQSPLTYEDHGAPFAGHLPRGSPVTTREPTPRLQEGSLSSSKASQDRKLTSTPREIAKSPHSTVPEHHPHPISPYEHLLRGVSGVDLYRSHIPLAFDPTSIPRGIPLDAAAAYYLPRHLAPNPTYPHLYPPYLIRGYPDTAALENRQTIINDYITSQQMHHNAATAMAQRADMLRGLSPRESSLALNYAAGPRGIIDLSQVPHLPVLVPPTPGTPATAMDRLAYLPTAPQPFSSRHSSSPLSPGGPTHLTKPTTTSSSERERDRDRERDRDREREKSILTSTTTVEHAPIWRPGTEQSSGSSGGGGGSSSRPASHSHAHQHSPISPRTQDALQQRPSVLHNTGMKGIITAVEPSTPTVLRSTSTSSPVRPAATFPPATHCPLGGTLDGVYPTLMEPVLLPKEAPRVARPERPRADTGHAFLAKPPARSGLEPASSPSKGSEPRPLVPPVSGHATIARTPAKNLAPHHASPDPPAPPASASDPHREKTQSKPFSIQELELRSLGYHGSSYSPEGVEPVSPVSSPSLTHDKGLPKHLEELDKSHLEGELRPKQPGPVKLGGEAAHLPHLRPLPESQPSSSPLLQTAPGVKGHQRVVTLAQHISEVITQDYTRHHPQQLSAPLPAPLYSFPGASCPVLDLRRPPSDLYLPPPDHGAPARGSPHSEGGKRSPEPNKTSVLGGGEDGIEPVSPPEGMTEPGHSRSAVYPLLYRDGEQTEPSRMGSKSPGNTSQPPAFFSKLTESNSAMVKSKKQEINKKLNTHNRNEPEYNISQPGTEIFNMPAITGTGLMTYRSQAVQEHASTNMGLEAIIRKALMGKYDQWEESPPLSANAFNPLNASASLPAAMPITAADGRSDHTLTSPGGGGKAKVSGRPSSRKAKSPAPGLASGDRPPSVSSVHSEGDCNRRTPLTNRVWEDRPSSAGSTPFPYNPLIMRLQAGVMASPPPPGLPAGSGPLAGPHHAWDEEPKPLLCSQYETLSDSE
Chain of HDAC8 (Q9BY41 whole entry): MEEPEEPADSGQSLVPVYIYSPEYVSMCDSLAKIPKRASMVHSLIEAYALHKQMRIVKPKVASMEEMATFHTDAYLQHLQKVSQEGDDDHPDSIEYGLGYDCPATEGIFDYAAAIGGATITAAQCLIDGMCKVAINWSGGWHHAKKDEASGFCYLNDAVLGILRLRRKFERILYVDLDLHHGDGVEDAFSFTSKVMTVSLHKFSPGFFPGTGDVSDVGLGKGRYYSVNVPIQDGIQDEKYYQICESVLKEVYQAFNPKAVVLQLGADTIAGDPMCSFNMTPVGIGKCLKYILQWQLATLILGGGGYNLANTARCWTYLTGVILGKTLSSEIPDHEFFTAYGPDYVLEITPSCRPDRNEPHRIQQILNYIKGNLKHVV
Chain of HDAC11 (Q96DB2 whole entry): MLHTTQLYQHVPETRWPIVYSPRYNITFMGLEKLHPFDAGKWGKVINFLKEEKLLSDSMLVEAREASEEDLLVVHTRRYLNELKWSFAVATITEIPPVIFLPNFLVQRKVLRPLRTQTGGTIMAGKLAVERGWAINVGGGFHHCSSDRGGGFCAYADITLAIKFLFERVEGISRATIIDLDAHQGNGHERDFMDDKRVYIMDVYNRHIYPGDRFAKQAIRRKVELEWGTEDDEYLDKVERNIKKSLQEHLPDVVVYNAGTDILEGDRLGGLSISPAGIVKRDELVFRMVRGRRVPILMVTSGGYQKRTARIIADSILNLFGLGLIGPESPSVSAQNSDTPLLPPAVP

O=C(CCCc1ccccc1)Nc1ccc(C(=O)NO)cc1 [HTPB, N-Hydroxy-4-(4-phenylbutyryl-amino)benzamide]
cytotoxicity towards IMR90 normal lung cell line [1]: without showing apparent cytotoxicity | deacetylase activity of HDAC1 (HDAC1): significantly inhibited | deacetylase activity of HDAC8 (HDAC8): significantly inhibited | deacetylase activity of HDAC4 (HDAC4): significantly inhibited | deacetylase activity of HDAC6 (HDAC6): significantly inhibited | deacetylase activity of HDAC11 (HDAC11): significantly inhibited | in vitro HDAC activity compared to MS275 (HDAC): significant inhibition | caspase-3 activity (A549 cells [2]): significantly stimulated | caspase-9 activity (A549 cells [2]): significantly stimulated | caspase-3 activity (H1299 cells [3]): significantly stimulated | caspase-9 activity (H1299 cells [3]): significantly stimulated | MMP-2 enzyme activity (MMP-2): significantly decreased | MMP-9 enzyme activity (MMP-9): significantly decreased | IC50 (A549 cells [4]): 1.59 µM | RhoA activity (RhoA-GTP) (RhoA): markedly decreased | effect on body weight [5]: did not adversely affect body weight | toxicity by hematological biochemistry examinations (GOT, GPT, albumin, creatinine) [5]: no detectable toxicity | cell viability of 4T1-luc cells [6]: did not change cell viability | transwell migration capacities compared to the un-treated control [7]: 50% | lung metastasis of 4T1-luc cells [8]: significantly delayed lung metastasis | acetylation of histone H3, histone H4, p53 and tubulin [9]: induced acetylation | acetylation of histone H3, histone H4 and p53 in tumor xenograft [10]: profoundly increased | IC50 (H1299 cells [11]): 2.19 µM | viability at 48 h, 0.5 µM (in vitro [12]): 87% | viability at 48 h, 1 µM (in vitro [12]): 80% | viability at 48 h, 0.5 µM (in vitro [13]): 94% | viability at 48 h, 1 µM (in vitro [13]): 85% | tumor growth inhibition compared with DMSO control ([14]; intraperitoneal, 25 mg/kg): 80% | tumor growth inhibition compared with DMSO control ([14]; intraperitoneal, 50 mg/kg): 94% | anti-tumor growth effect, times more potent than SAHA as assessed by tumor weight ([14]; intraperitoneal, tumor weight): 2–4 times | tumor growth inhibition ([14]; 50 mg/kg): 39% | tumor growth inhibition ([14]; 100 mg/kg): 79%
